Assays:
[1] = target: T1, HIV-1 reverse transcriptase (Human immunodeficiency virus type 1 group M subtype B, UniProt P04585); assay: Inhibition of HIV-1 Reverse Transcriptase Enzyme; type: biochemical; conditions: purified recombinant HIV-1 RT expressed in Escherichia Coli; [3H]-SPA or [3H]-flashplate enzyme assay; 5% final DMSO
T1 construct: purified recombinant HIV-1 reverse transcriptase (RT, EC, 2.7.7.49) obtained by expression in Escherichia Coli; made in house; host or cells: Escherichia coli
Description: The activity of the compounds of the invention as reverse transcriptase inhibitors may be measured using the following assay.
Inhibition of HIV-1 Reverse Transcriptase Enzyme
Using purified recombinant HIV-1 reverse transcriptase (RT, EC, 2.7.7.49) obtained by expression in Escherichia Coli, a 96-well plate assay system is established for assaying a large number of samples using either the Poly(rA)-oligo(dT) Reverse Transcriptase [3H]-SPA enzyme assay system (Amersham NK9020) or the [3H]-flashplate enzyme assay system (NEN-SMP 103) and following the manufacturer's recommendations. The compounds are dissolved in 100% DMSO and diluted with the appropriate buffer to a 5% final DMSO concentration. The inhibitory activity is expressed in percent inhibition relative to DMSO control.

Structure (SMILES)	IC50 [1] [nM]	melting point [°C]
CCc1n[nH]c(CCOc2ccc(SC)cc2)c1Oc1cc(C#N)cc(C#N)c1 [Example 1, 5-[(3-Ethyl-5-{2-[4-(methylsulfanyl)phenoxy]ethyl}-1H-pyrazol-4-yl)oxy]isophthalonitrile]	2	
CCc1n[nH]c(CCOc2ccc(S(C)(=O)=O)cc2)c1Oc1cc(C#N)cc(C#N)c1 [Example 3, 5-[(3-Ethyl-5-{2-[4-(methylsulfonyl)phenoxy]ethyl}-1H-pyrazol-4-yl)oxy]isophthalonitrile]	45	88 to 90

From patent publication US7220772B2, “Pyrazole derivatives” (Pfizer, Inc., priority 2003, dated 2007)
